Series [1] can be described thus: Plasma Stability Assay (LC-MS). The format is in vitro ADME. To be noted: male, Sprague-Dawley, rat. How it is done:
Plasma Stability Assay: Materials: Working solution: 1 mg/mL test article is prepared in Milli-Q water Extraction solution: Methanol:Acetonitrile:Water (1:1:1) with 0.1% Formic Acid and 400 ng/mL Glyburide. Plasma: Male Sprague-Dawley rat plasma (with sodium heparin), purchased from Bioreclamation LLC (Liverpool, N.Y.). Test article was prepared in one of the following biological matrices: heparinized rat plasma, heparinized rat whole blood or lung homogenate. […] Lung homogenate samples were prepared by diluting lung homogenate to 1 mg/ml protein concentration with phosphate buffered saline (PBS), followed by addition of 5 uL Working solution to 995 uL diluted lung homogenate. The samples were incubated at 37° C. with gentle shaking (65˜75 rpm) in a water bath incubator. […] Afterwards, a pipetting device (Tecan Temo) was used to tranfer the supernatants to another plate and add 50 uL of water to all samples. The plate was vortexed prior to LC-MS analysis. LC-MS Analysis of stability samples HPLC: Agilent 1290 HPLC with autosampler Column: MAC-MOD ACE C18, 3 μm, 30 mm×2.1 mm i.d. Mobile phase A: 0.1% Formic acid in acetonitrile Mobile phase B: 0.1% Formic acid in water Gradient Program: [table]

Another series addresses T1, hAPJ (Homo sapiens, UniProt P35414).
T1 sequence (P35414 1-380): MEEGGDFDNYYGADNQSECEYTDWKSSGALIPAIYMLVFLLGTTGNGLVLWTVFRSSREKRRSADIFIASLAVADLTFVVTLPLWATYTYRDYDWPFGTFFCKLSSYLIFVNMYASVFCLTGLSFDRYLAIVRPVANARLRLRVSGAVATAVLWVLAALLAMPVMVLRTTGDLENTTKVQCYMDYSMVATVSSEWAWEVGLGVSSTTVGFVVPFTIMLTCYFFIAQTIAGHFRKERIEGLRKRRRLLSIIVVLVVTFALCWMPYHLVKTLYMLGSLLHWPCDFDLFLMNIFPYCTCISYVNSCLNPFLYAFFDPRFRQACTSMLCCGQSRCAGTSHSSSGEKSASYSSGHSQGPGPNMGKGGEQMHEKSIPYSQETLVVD
Description: hAPJ Calcium Flux Assay. The format is cell-based. Particulars: Chem-5 APJ stable cells, FLIPR calcium flux stimulation; read-out: hAPJ Ca^2+ Flux EC50. In short, it runs like this: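 Chem-5 cells stably expressing APJ, loaded 1 h with Calcium 4 dye plus 2.5 mM probenecid at 37 °C. Peptides added at final […] in HBSS/HEPES/0.1% BSA, in triplicate.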
A general note: Calcium assays in cells follow changes in intracellular calcium, usually with a dye or a luminescent sensor.

Series [2] is described as follows: Surrogate Activity-Based Plasma Stability Assay. The format is in vitro ADME. Particulars: rat. On the procedure:
Stability half-life was then calculated by the formula, t½=0.693÷k Surrogate Activity-Based Plasma Stability Assay: […]
2) Calculate slope of value above and […]

Setting [3] is: Surrogate Activity based Plasma stability t½.
[4] abbreviates: Surrogate activity-based Plasma stability t½.

Where a SMILES comes first, the peptide text is derived from it. [ ]: non-standard residue; d: D form. pGlu = O=C1CC[C@@H](C(=O)O)N1; dNle = CCCC[C@@H](N)C(=O)O

The source of these data is patent publication US8921307B2, “Synthetic linear apelin mimetics for the treatment of heart failure” (priority 2012, dated 2014).

One may read the half-life as the time needed for the level to fall by half in the phase considered. High values mean slow decline, low ones rapid decline. As usually defined, the EC50 is the midpoint of the concentration-response curve.

As for `CCCC[C@@H](NC(=O)[C@@H]1CCCN1C(=O)CNC(=O)[C@H](CCCCN)NC(=O)[C@H](Cc1c[nH]cn1)NC(=O)[C@@H](C)NC(=O)[C@H](CC(C)C)NC(=O)[C@H](CCCNC(=N)N)NC(=O)[C@@H]1CCCN1C(=O)[C@H](CCCNC(=N)N)NC(=O)[C@@H]1CCC(=O)N1)C(=O)N[C@H](CC(C)C)C(=O)N[C@H](Cc1ccccc1)C(=O)O` [Example 14, pE-R-P-R-L-a-H-K-G-P-nle-(D-Leu)-f-OH] ([pGlu]RPRL[dA]HKGP[dNle][dL][dF]-OH), the half-life at 5000 ng/mL in series [1] was found to be 6.75 h. In addition, the EC50 on hAPJ stood at 3.2 nM. Further, the half-life in series [2] (setting [3]) and in series [2] (setting [4]) was 3.08 h throughout.

For `CCCC[C@H](NC(=O)[C@@H]1CCCN1C(=O)CNC(=O)[C@H](CCCCN)NC(=O)[C@H](Cc1c[nH]cn1)NC(=O)[C@@H](C)NC(=O)[C@H](CC(C)C)NC(=O)[C@H](CCCNC(=N)N)NC(=O)[C@@H]1CCCN1C(=O)[C@H](CCCNC(=N)N)NC(=O)[C@@H]1CCC(=O)N1)C(=O)N[C@H](C)C(=O)N[C@H](Cc1ccccc1)C(=O)O` [Example 30, pE-R-P-R-L-a-H-K-G-P-Nle-a-f-OH], the half-life at 5000 ng/mL in series [1] came to 2.02 h. The EC50 on hAPJ came out at 2.4 nM. Further, the half-life was found to be 2.13 h in series [2] (setting [3]) and 2.14 h in series [2] (setting [4]).
